Data reported in patent publication US20260199284A1, “SPECIFIC VASH COMPOUNDS (SVC) INHIBITORS FOR HEART DISEASES” (MT ACT, priority 2023, published 2026).
“Also recorded” adds a separate entry of the source.

What was measured:
mitochondrial activity = experiment: Seahorse Cell Mito Stress Test; type: cell-based; details: 20 μM
Procedure: FIG. 10: Mitochondrial activity assays using the Agilent Seahorse Cell Mito Stress Test kit in absence or presence of SVC_01 [20 μM]. This assay is the widely recognized, well-accepted standard assay for assessing energetic mitochondrial function. Multiple parameters are obtained in this one assay including, basal respiration, ATP-linked respiration, maximal and reserve capacities, and non-mitochondrial respiration. The assay provides insights into the mechanism of mitochondrial dysfunction and allow users to investigate functional differences among cell types, drug candidates, and genetic or biochemical interventions.
Next, we performed safety pharmacology experiments and head-to-head compared the cellular toxicity of SVCs on human cells. For our comparison we used microtubule binding agents including Parthenolide that previously was coined as an inhibitor of detyrosination (Fonrose et al., 2007). This compound was latter shown to disrupt microtubules by non-specific binding to tubulin in the molecular structure (Hotta T. et al., 2021). […] Mitochondrial health was assayed using the Seahorse equipment XF. […] No mitochondrial defects were measured at 20 micromolar concentration of our VASH inhibitor (FIG. 10). […]

[1] = test system: primary cardiomyocytes isolated from Sprague Dawley rats; experiment: Western blot of detyrosinated tubulin in primary cardiomyocytes; type: cell-based, rat
Procedure: A) Representative western blot and B) quantification of detyrosinated and alpha-tubulin levels after 2 hrs 37° C. incubation of freshly isolated adult rat cardiomyocytes with compound SVC_01 at indicated concentrations. N=4 Sprague Dawley rats.
Primary adult ventricular cardiac myocytes were isolated from 6 to 8 weeks old Sprague Dawley rats or 20 to 30 weeks old WKY, ZSF1 lean and obese rats. Briefly, the heart was removed from a rat anesthetized under isoflurane and retrograde-perfused on a Langendorff apparatus with a collagenase solution. The digested heart was then minced and triturated using a glass pipette. The resulting supernatant was separated and centrifuged at 300 revolution per minute (rpm) to isolate cardiomyocytes which were then resuspended in rat cardiomyocyte media at low density. Cardiomyocytes were cultured at 37° C. and 5% CO2 with 25 μmol/L of cytochalasin D. Rat cardiomyocyte media: medium 199 (Thermo Fisher 115090) supplemented with 1× Insulin-transferrin-selenium-X (Gibco 51500056), 1 μg μl^−1 primocin (Invivogen ant-pm-1), 20 mmol/L HEPES at pH 7.4 and 25 μmol/L cytochalasin D.
For whole cell protein extraction, isolated rat cardiomyocytes were lysed in RIPA buffer (Cayman #10010263) supplemented with protease and phosphatase Inhibitor cocktail (Cell Signaling #5872S) on ice for 1 hour. […] All samples were run in duplicates and analyzed in reference to GAPDH.

recombinant human VASH2 = recombinant human VASH2 (Homo sapiens, UniProt Q86V25); experiment: In vitro detyrosination assay with recombinant human VASH2; type: biochemical; details: increasing concentration
Procedure: FIG. 32: In vitro detyrosination assays using recombinant human VASH1 and VASH2 enzymes in presence of increasing concentration of SVC_01.
Specificity of SVC-01 was assayed using both human VASH1 and VASH2 recombinant enzymes. […] Finally, to ensure that regulation of other genes involved in the detyrosination-tyrosination cycle is not affected, we analysed gene expression of all relevant and associated genes following treatment with SVC-02 in adult human cardiomyocytes. We found no alteration of VASH1, VASH2, MATCAP, TTL or SVBP gene expression between vehicle control and SVC-02 treated cells (FIG. 34).

Carboxypeptidase A (CPA) = molecular target: T1, Carboxypeptidase A (CPA) (Homo sapiens, UniProt P15085); experiment: Carboxypeptidase A in vitro assay (western blot); type: biochemical; details: selectivity control
T1 sequence (P15085 111-419): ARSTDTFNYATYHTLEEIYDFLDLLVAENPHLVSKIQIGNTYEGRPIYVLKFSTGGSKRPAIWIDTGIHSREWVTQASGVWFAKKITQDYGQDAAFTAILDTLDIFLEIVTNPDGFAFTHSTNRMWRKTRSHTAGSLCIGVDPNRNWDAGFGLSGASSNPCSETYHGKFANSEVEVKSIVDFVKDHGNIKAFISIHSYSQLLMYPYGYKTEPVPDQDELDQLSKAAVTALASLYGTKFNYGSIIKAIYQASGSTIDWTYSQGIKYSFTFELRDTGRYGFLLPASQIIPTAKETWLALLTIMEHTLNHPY
Description: FIG. 6: In vitro detyrosination assays using recombinant human enzymes in absence or presence of SVC_01 or BzISA (specific carboxypeptidase A inhibitor). […] Reactions were stopped using SDS-page laemli buffer and loaded for western blotting using specific antibodies.
Below, the criteria for selection are detailed: • Protease with documented carboxypeptidase activity towards alpha tubulin. Carboxypeptidase A hydrolyzes peptide bonds of C-terminal residues with aromatic or aliphatic side-chains (FIG. 6). • Cysteine protease with preference for non-aromatic residues at P1′. The optimum recognition site for Human rhinovirus (HRV) type 14 3C protease is LEVLFQ/GP, with a glycine at the P1′ position (FIG. 7). • Cysteine protease with preference for aromatic residues at P1′ site. Alike VASH, cathepsin B prefers an aromatic residue at the P1′ position. This is considered to be our best control for specificity (FIG. 8)

Swiss mice = experiment: Organ histology (Hematoxylin and Eosin) after systemic treatment; type: in vivo, mouse
Description: To further ascertain the safety profile of the compounds in an animal model, we administered SVC-02 to Swiss mice and analysed by immunohistological description different organ structures including kidney, heart and lung.

recombinant human VASH2, sequence (Q86V25 whole entry): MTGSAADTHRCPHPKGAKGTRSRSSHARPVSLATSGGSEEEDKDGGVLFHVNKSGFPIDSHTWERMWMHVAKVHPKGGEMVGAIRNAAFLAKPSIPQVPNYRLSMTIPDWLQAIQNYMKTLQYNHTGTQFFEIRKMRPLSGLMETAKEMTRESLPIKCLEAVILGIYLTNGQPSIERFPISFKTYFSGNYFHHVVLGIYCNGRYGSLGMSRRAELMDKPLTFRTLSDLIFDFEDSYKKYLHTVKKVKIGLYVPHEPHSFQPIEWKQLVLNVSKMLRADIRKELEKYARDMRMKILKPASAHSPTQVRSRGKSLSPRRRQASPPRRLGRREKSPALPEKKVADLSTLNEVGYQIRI

Row | Compound | mitochondrial activity (mitochondrial activity) | reduction of tubulin detyrosination ([1]; 2 hours incubation, Sprague Dawley rat cardiomyocytes) [%] | reduction in detyrosination ([1]; 2 hrs 37° C., indicated concentrations) | inhibition of detyrosinating activity of recombinant human VASH2 (recombinant human VASH2) | inhibition of Carboxypeptidase A (Carboxypeptidase A (CPA)) | organ structure (kidney, heart and lung) histology (Swiss mice)
1 | O=C(O)CCC[C@H](NC(=O)[C@H]1O[C@@H]1C(=O)C[C@@H](Cc1ccc(OCc2ccccc2)cc1)C(=O)O)C(=O)NCCc1ccccc1 [SVC_01] | does not alter mitochondrial activity | ~80 | Dose-dependent reduction in detyrosination | efficiently inhibited; also recorded: efficient in inhibiting | No cross reactions observed | 
2 | CCOC(=O)[C@H](Cc1ccc(OCC)cc1)NC(=O)[C@H]1O[C@@H]1C(=O)N[C@@H](Cc1ccc(OCC)cc1)C(=O)OCC [SVC_02] |  |  |  |  |  | normal appearance of different organs; also recorded: did not alter organ structure
